Drawing on PubChem BioAssay AID1259411 (Chemical Carcinogenesis Research Information System (CCRIS), 2018), this text covers carcinogen call for nine compounds.

In this data set the test system is rodent carcinogenicity bioassays, tumor incidence. Nature of the data set: CCRIS carcinogenicity studies. A digest of the protocol:
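Archive of carcinogenicity, mutagenicity, tumor promotion and tumor inhibition results drawn from journals, NCI reports and other sources, expert-reviewed; covers 1985-2011 and is no longer updated.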

The source made the active and inactive calls. The rule behind the calls is not given here.

For `N#CCNC(=O)c1cnccc1C(F)(F)F`, the carcinogen call is “active; positive” (Species: Mouse, Strain/Sex: Crl:CD-1(ICR)BR VAF/Plus / Female (60/Group), Route: Oral, Dose: 0, 250, 750, 2250 ppm (0; 38; 112; 334 mg/kg/day) in diet for 18 mo, study duration 18 mo, Dose: 0, 250, 750, 2250 ppm (0; 38; 112; 334 mg/kg/day) in diet for 18 mo, study duration 18 mo, Tumor Site: Type of Lesion: Lung: alveolar/bronchiolar adenomas and carcinomas); “active; positive” (Species: Mouse, Strain/Sex: Crl:CD-1(ICR)BR VAF/Plus / Male (60/Group), Route: Oral, Dose: 0, 250, 750, 2250 ppm (0; 29; 88; 261 mg/kg/day) in diet for 18 mo, study duration 18 mo, Dose: 0, 250, 750, 2250 ppm (0; 29; 88; 261 mg/kg/day) in diet for 18 mo, study duration 18 mo, Tumor Site: Type of Lesion: Lung: alveolar/bronchiolar adenomas and carcinomas); “inactive; negative” (Species: Rat, Strain/Sex: Wistar (Jcl:Wistar)/Female (52/Group), Route: Oral, Dose: 0, 200, 1000, 5000 ppm (0; 8.92; 44.1; 219 mg/kg/day) in diet for 2 yr, study duration 2 yr, Dose: 0, 200, 1000, 5000 ppm (0; 8.92; 44.1; 219 mg/kg/day) in diet for 2 yr, study duration 2 yr); “inactive; negative” (Species: Rat, Strain/Sex: Wistar (Jcl:Wistar)/Male (52/Group), Route: Oral, Dose: 0, 50, 100, 200, 1000 ppm (0; 1.84; 3.68; 7.32; 36.5 mg/kg/day) in diet for 2 yr, study duration 2 yr, Dose: 0, 50, 100, 200, 1000 ppm (0; 1.84; 3.68; 7.32; 36.5 mg/kg/day) in diet for 2 yr, study duration 2 yr).
As for `CC(COc1ccc(C(C)(C)C)cc1)OS(=O)OCCCl` (centres undefined), the carcinogen call by setting is: (Species: DOG, Strain/Sex: MONGREL/MALE,FEMALE, Route: ORAL, Dose: 0, 500, 828-1420 PPM IN DIET FOR 3.5 YR, Dose: 0, 500, 828-1420 PPM IN DIET FOR 3.5 YR, Tumor Site: Type of Lesion: BILE DUCT: ADENOCARCINOMA, GALL BLADDER: ADENOCARCINOMA) “active; positive”; (Species: MOUSE, Strain/Sex: B6C3F1/MALE,FEMALE, Route: GAVAGE/ORAL, Dose: 464 MG/KG FROM D 7-28 OF LIFE THEN 1112 PPM IN DIET, Tumor Site: Type of Lesion: LIVER: HEPATOMA) “active; positive”; (Species: RAT, Strain/Sex: WISTAR/MALE,FEMALE, Route: ORAL, Dose: 500, 1580, 5000 PPM IN DIET FOR 2 YR, Dose: 500, 1580, 5000 PPM IN DIET FOR 2 YR, Tumor Site: Type of Lesion: LIVER: HEPATOMA, CHOLANGIOMA) “active; positive”.
For `C=C(C)C#N`, the carcinogen call was “inactive; negative” (Species: MOUSE, Strain/Sex: B6C3F1/FEMALE, Route: GAVAGE, Dose: 0, 1.5, 3, 6 MG/KG 5 D/WK FOR 104-105 WK (STUDY DURATION: 104-105 WK), Dose: 0, 1.5, 3, 6 MG/KG 5 D/WK FOR 104-105 WK (STUDY DURATION: 104-105 WK)); “inactive; negative” (Species: MOUSE, Strain/Sex: B6C3F1/MALE, Route: GAVAGE, Dose: 0, 1.5, 3, 6 MG/KG 5 D/WK FOR 104-105 WK (STUDY DURATION: 104-105 WK), Dose: 0, 1.5, 3, 6 MG/KG 5 D/WK FOR 104-105 WK (STUDY DURATION: 104-105 WK)); “inactive; negative” (Species: RAT, Strain/Sex: F344/FEMALE, Route: GAVAGE, Dose: 0, 3, 10, 30 MG/KG 5 D/WK FOR 104-105 WK (STUDY DURATION: 104-105 WK), Dose: 0, 3, 10, 30 MG/KG 5 D/WK FOR 104-105 WK (STUDY DURATION: 104-105 WK)); “inactive; negative” (Species: RAT, Strain/Sex: F344/MALE, Route: GAVAGE, Dose: 0, 3, 10, 30 MG/KG 5 D/WK FOR 104-105 WK (STUDY DURATION: 104-105 WK), Dose: 0, 3, 10, 30 MG/KG 5 D/WK FOR 104-105 WK (STUDY DURATION: 104-105 WK)).
For the compound `O=c1ccc(O)n[nH]1`, the carcinogen call is “inactive; negative” (Species: Mouse, Strain/Sex: Charles River CD-1/Female (50/Group), Route: Oral, Dose: 0, 189, 598, 1811 mg/kg/day of 90% maleic hydrazide potassium salt in diet for 98 wk, study duration 98 wk, Dose: 0, 189, 598, 1811 mg/kg/day of 90% maleic hydrazide potassium salt in diet for 98 wk, study duration 98 wk); “inactive; negative” (Species: Mouse, Strain/Sex: Charles River CD-1/Male (50/Group), Route: Oral, Dose: 0, 157, 509, 1545 mg/kg/day of 90% maleic hydrazide potassium salt in diet for 98 wk, study duration 98 wk, Dose: 0, 157, 509, 1545 mg/kg/day of 90% maleic hydrazide potassium salt in diet for 98 wk, study duration 98 wk); “inactive; negative” (Species: Rat, Strain/Sex: Sprague-Dawley/Female (50/Group), Route: Oral, Dose: 0, 25, 500, 1000 mg/kg/day of 72.5-73.8% as maleic hydrazide in diet for 104 wk, study duration 104 wk, Dose: 0, 25, 500, 1000 mg/kg/day of 72.5-73.8% as maleic hydrazide in diet for 104 wk, study duration 104 wk); “inactive; negative” (Species: Rat, Strain/Sex: Sprague-Dawley/Male (50/Group), Route: Oral, Dose: 0, 25, 500, 1000 mg/kg/day of 72.5-73.8% as maleic hydrazide in diet for 104 wk, study duration 104 wk, Dose: 0, 25, 500, 1000 mg/kg/day of 72.5-73.8% as maleic hydrazide in diet for 104 wk, study duration 104 wk).
With `CC1=C[C@H]2O[C@@H]3[C@H](O)[C@@H](O)[C@](C)([C@@]2(CO)[C@H](O)C1=O)[C@]31CO1`, the carcinogen call (Species: MOUSE, Strain/Sex: C57BL/6CRSLC/FEMALE, Route: ORAL, Dose: 0, 6, 12, 30 PPM IN DIET FOR 104 WK (STUDY DURATION: 104 WK), Dose: 0, 6, 12, 30 PPM IN DIET FOR 104 WK (STUDY DURATION: 104 WK)) is “inactive; negative”.
In the case of `C=CF`, the carcinogen call is “active; positive” (Species: MOUSE, Strain/Sex: SWISS/FEMALE, Route: INHALATION, Dose: 0, 25, 250, 2500 PPM 6 HR/D 5 D/WK FOR 18 MO (STUDY DURATION: 18 MO), Dose: 0, 25, 250, 2500 PPM 6 HR/D 5 D/WK FOR 18 MO (STUDY DURATION: 18 MO), Tumor Site: Type of Lesion: LUNG: ADENOMA, LIVER: HEMANGIOSARCOMA, MAMMARY GLAND: TUMOR, Tumor Site: Type of Lesion: LUNG: ADENOMA, LIVER: HEMANGIOSARCOMA, MAMMARY GLAND: TUMOR); “active; positive” (Species: MOUSE, Strain/Sex: SWISS/MALE, Route: INHALATION, Dose: 0, 25, 250, 2500 PPM 6 HR/D 5 D/WK FOR 18 MO (STUDY DURATION: 18 MO), Dose: 0, 25, 250, 2500 PPM 6 HR/D 5 D/WK FOR 18 MO (STUDY DURATION: 18 MO), Tumor Site: Type of Lesion: LUNG: ADENOMA, LIVER: HEMANGIOSARCOMA); “active; positive” (Species: RAT, Strain/Sex: SPRAGUE-DAWLEY/FEMALE, Route: INHALATION, Dose: 0, 25, 250, 2500 PPM 6 HR/D 5 D/WK FOR 2 YR (STUDY DURATION: 2 YR), Dose: 0, 25, 250, 2500 PPM 6 HR/D 5 D/WK FOR 2 YR (STUDY DURATION: 2 YR), Tumor Site: Type of Lesion: LIVER: HEMANGIOSARCOMA, ADENOMA OR CARCINOMA, ZYMBAL'S GLAND: TUMOR); “active; positive” (Species: RAT, Strain/Sex: SPRAGUE-DAWLEY/MALE, Route: INHALATION, Dose: 0, 25, 250, 2500 PPM 6 HR/D 5 D/WK FOR 2 YR (STUDY DURATION: 2 YR), Dose: 0, 25, 250, 2500 PPM 6 HR/D 5 D/WK FOR 2 YR (STUDY DURATION: 2 YR), Tumor Site: Type of Lesion: LIVER: HEMANGIOSARCOMA, ZYMBAL'S GLAND: TUMOR).
`CCCN(CCC)N=O`: the carcinogen call by setting is: (Species: HAMSTER, Route: SUBCUTANEOUS, Tumor Site: Type of Lesion: RESPIRATORY TRACT, LUNG) “active; positive”; (Species: RAT, Route: ORAL, Tumor Site: Type of Lesion: LIVER) “active; positive”; (Species: RAT, Route: SUBCUTANEOUS, Tumor Site: Type of Lesion: NASAL CAVITY, LIVER) “active; positive”.
`S=C(NC1CCCCC1)NC1CCCCC1`: the carcinogen call reads like this: (Species: MOUSE, Strain/Sex: B6C3F1/FEMALE, Route: ORAL, Dose: 0, 25000, 50000 PPM IN DIET, Dose: 0, 25000, 50000 PPM IN DIET) “inactive; negative”; (Species: MOUSE, Strain/Sex: B6C3F1/MALE, Route: ORAL, Dose: 0, 25000, 50000 PPM IN DIET, Dose: 0, 25000, 50000 PPM IN DIET) “inactive; negative”; (Species: RAT, Strain/Sex: F344/FEMALE, Route: ORAL, Dose: 0, 25000, 50000 PPM IN DIET, Dose: 0, 25000, 50000 PPM IN DIET) “inactive; negative”; (Species: RAT, Strain/Sex: F344/MALE, Route: ORAL, Dose: 0, 25000, 50000 PPM IN DIET, Dose: 0, 25000, 50000 PPM IN DIET) “inactive; negative”.
Turning to `O=CC(O)C(O)C(O)C(O)COC1OC(COC2OC(CO)C(O)C(O)C2O)C(O)C(O)C1O` (centres undefined), the carcinogen call was “inactive; negative” (Species: RAT, Strain/Sex: ACI/FEMALE, Route: ORAL, Dose: 0, 2.5% (MOL. WT. 21500) IN DIET FOR 480 D (STUDY DURATION: 480 D)) and “inactive; negative” (Species: RAT, Strain/Sex: ACI/MALE, Route: ORAL, Dose: 0, 2.5% (MOL. WT. 21500) IN DIET FOR 480 D (STUDY DURATION: 480 D)).
